Measurements: patent US11793803B2, “Particle and pharmaceutical composition comprising an insoluble camptothecin compound with double core-shell structure and method for manufacturing the same” (SN BIOSCIENCE INC., priority 2017, dated 2023)
In brackets after ≈: the same amount, converted by molar mass.

Assay: Solubility in different solvents (supersaturated solution, filtrate analysed by HPLC)
Settings: for solubility at 30 min: thermodynamic from solid
Procedure: A supersaturated solution was prepared by adding 20 mg of the hydrophobic camptothecin compound (camptothecin or SN-38) to 5 ml of ethanol, acetonitrile, acetone, ethyl acetate, chloroform dimethyl sulfoxide, or distilled water, followed by ultrasonic treatment for 30 minutes. The prepared supersaturated solution was filtered through a 0.45-μm filter, and a filtrate was properly diluted, followed by HPLC analysis.
The prepared supersaturated solution was filtered through a 0.45-μm filter, and a filtrate was properly diluted, followed by HPLC analysis.
HPLC (Agilent 1200 Series, USA) conditions were as follows. The column was CapcellPak C8 (5 m, 4.6 mm×25 cm, Shiseido); the mobile phase was a mixed solvent of methanol:acetonitrile:buffer (2.8 g/L sodium dihydrogenphosphate, 1.8 g/L 1-octanesulfonate aqueous solution)=17:24:59 (v/v); the flow rate was 1.5 mL/min; the measurement wavelength was UV 255 nm; and the sample injection amount was 15 μL.

| Structure (SMILES) | solubility at 30 min (acetonitrile, organic solvent or mixture) | solubility at 30 min (chloroform, organic solvent or mixture) | solubility at 30 min (dimethyl sulfoxide, organic solvent or mixture) | solubility at 30 min (distilled water, water) | solubility at 30 min (ethanol, organic solvent or mixture) | solubility at 30 min (ethyl acetate, organic solvent or mixture) | Solubility of hydrophobic camptothecin-based compound (Acetonitrile) | Solubility of hydrophobic camptothecin-based compound (Chloroform) | Solubility of hydrophobic camptothecin-based compound (Dimethyl sulfoxide) | Solubility of hydrophobic camptothecin-based compound (Distilled water) | Solubility of hydrophobic camptothecin-based compound (Ethanol) | Solubility of hydrophobic camptothecin-based compound (Ethyl acetate) |
| --- | --- | --- | --- | --- | --- | --- | --- | --- | --- | --- | --- | --- |
| CC[C@@]1(O)C(=O)OCc2c1cc1n(c2=O)Cc2cc3ccccc3nc2-1 [Camptothecin, camptothecin] | 101 µg/mL (≈ 290 µM) | 2 µg/mL (≈ 5.74 µM) | 3290 µg/mL (≈ 9450 µM) | 9 µg/mL (≈ 25.8 µM) | 149 µg/mL (≈ 428 µM) | 134 µg/mL (≈ 385 µM) |  |  |  |  |  |  |
| CCc1c2c(nc3ccc(O)cc13)-c1cc3c(c(=O)n1C2)COC(=O)[C@]3(O)CC [SN-38, 7-ethyl-10-hydroxy-camptothecin] |  |  |  |  |  |  | 0.402 mg/mL | 0.009 mg/mL | 2.263 mg/mL | <0.001 mg/mL | 0.779 mg/mL | 0.078 mg/mL |
